# Read-outs that look alike come from different tables or passages of the source. Residues, ends and D or L forms follow the SMILES beside them.
# Legend:
# E. coli (ATCC 25922) = test: Antibacterial activity (MIC), liquid culture in 96-well microtiter plates; format: cell-based; details: read-out: Minimum inhibitory conc. (MIC) against bacteria 11
# Description: (§1) Piscidin-1 and its analogs were examined for bacterial growth-inhibiting activity in liquid cultures against Gram-positive bacteria including MRSA strains and Gram-negative bacteria (Table 2). […] The therapeutic index is a parameter that signify the specificity or selectivity of antimicrobial agents towards microorganisms over mammalian cells.
# (§2) Antibacterial assays with all the peptides were done in 96-well microtiter plates against different Gram-positive, Gram-negative and resistant bacteria as described earlier.
# [1] = system: Staphylococcus aureus (ATCC BAA-44 MRSA); test: microbe, parasite or virus in culture
# Description: as §1, §2
# [2] = system: Staphylococcus aureus (ATCC 700699 MRSA); test: microbe, parasite or virus in culture
# Description: as §1, §2
# [3] = system: Staphylococcus aureus (ATCC 700698 MRSA); test: microbe, parasite or virus in culture
# Description: as §1, §2
# [4] = system: Staphylococcus aureus (ATCC 33592 Gentamycin Resistant); test: microbe, parasite or virus in culture
# Description: as §1, §2
# [5] = system: Staphylococcus aureus (ATCC 1708 MRSA); test: microbe, parasite or virus in culture
# Description: as §1, §2
# [6] = system: Staphylococcus aureus (ATCC 25923); test: microbe, parasite or virus in culture; format: cell-based; details: for Minimum inhibitory conc. (MIC) against bacteria 1: ATCC 25923; for MIC: Staphylococcus aureus (ATCC 25923), means of three independent experiments each in duplicate ± SD, read-out: Minimum inhibitory conc. (MIC) against bacteria 1
# Description: as §1, §2
# [7] = system: P. aeruginosa (ATCC BAA-427); test: microbe, parasite or virus in culture; format: cell-based; details: for Minimum inhibitory conc. (MIC) against bacteria 8: ATCC BAA-427; for MIC: P. aeruginosa (ATCC BAA-427), means of three independent experiments each in duplicate ± SD, read-out: Minimum inhibitory conc. (MIC) against bacteria 8
# Description: as §1, §2
# B. subtilis (ATCC 6633) = test: microbe, parasite or virus in culture; format: cell-based; details: for Minimum inhibitory conc. (MIC) against bacteria 9: ATCC 6633; for MIC: B. subtilis (ATCC 6633), means of three independent experiments each in duplicate ± SD, read-out: Minimum inhibitory conc. (MIC) against bacteria 9
# Description: as §1, §2
# [8] = system: K. pneumoniae (ATCC 27736); test: microbe, parasite or virus in culture; format: cell-based; details: for Minimum inhibitory conc. (MIC) against bacteria 10: ATCC 27736; for MIC: K. pneumoniae (ATCC 27736), means of three independent experiments each in duplicate ± SD, read-out: Minimum inhibitory conc. (MIC) against bacteria 10
# Description: as §1, §2
# [9] = system: Staphylococcus aureus (ATCC 29213); test: microbe, parasite or virus in culture; format: cell-based; details: for Minimum inhibitory conc. (MIC) against bacteria 2: ATCC 29213; for MIC: Staphylococcus aureus (ATCC 29213), means of three independent experiments each in duplicate ± SD, read-out: Minimum inhibitory conc. (MIC) against bacteria 2
# Description: as §1, §2
# [10] = system: human red blood cells (hRBCs); format: cell-based
# Description: Cytotoxic activity of piscidin-1 and its designed analogs was examined by assaying the lysis of human red blood cells (hRBCs) and the viability of murine 3T3 cells in presence of these peptides. […] Introduction of D-lysine (dK)residues instead of threonine residues at 15th & 21st positions further reduced the haemolytic activity of piscidin-1 (Fig. 1A). Overall, haemolytic activity of these peptides against hRBCs followed the order piscidin-1 > T15K-piscidin-1 > T15dK-piscidin-1 > T15,21K-piscidin-1 > T15,21dK-piscidin-1. Viability of 3T3 cells as determined by MTT assay in the presence of these peptides followed the same trend as their haemolytic activity (Fig. 1B).
# Haemolytic activity of the peptides against human red blood cells in PBS was performed by assaying the ability of the peptides to lyse the hRBCs[24][48]. For this purpose, fresh human red blood cells (hRBCs) were collected in the presence of an anti-coagulant from a healthy volunteer. After washing the blood three times with PBS haemolytic activity of the peptides were determined as reported previously. Methodology of our experiment with human blood was in accordance with relevant guidelines and regulations of CSIR-central drug research institute ethics committee and was approved by it with approval No. CDRI/IEC/2014/A5. Further, informed consent was obtained from the healthy volunteer before collection of blood as per the guideline of our Institutional ethics committee.
# hRBCs = test: Localization of NBD-labelled peptides onto hRBCs by confocal microscopy, quantitative fluorescence; format: cell-based, human; details: NBD-labelled peptides ~10.0 μM, at least 25 cells analysed
# Description: Figure 3 Confocal laser scanning microscopy to look into the localization of piscidin-1 and its selected analogs onto E. coli and hRBCs. […] Fluorescence and DIC images for treatment of different cells with each of the peptides are shown as marked on top of the respective panel. Panels (C) and (D) show the quantitative analysis of fluorescence intensity of E. coli and hRBCsbound to NBD-labeled piscidin-1, T15,21K-piscidin-1 and T15,21dK-piscidin-1 respectively.
# The localization of NBD-labeled piscidin-1, T15,21K-piscidin-1 and T15,21dK-piscidin-1 was also studied onto hRBCs by confocal microscopy. […] Quantitative analyses of the confocal microscopic fluorescence images were carried out. At least 25 cells from fluorescence images for each set of experiments were included in the analysis. The results are shown at the bottom of the fluorescence images of the respective cells (Fig. 3C and D).
# [11] = system: E. coli 0111:B4 LPS-administered mice; test: In vivo anti-LPS activity: survival of LPS-administered mice (septic shock); details: single dose 1.0 mg/kg i.p. after LPS 12 mg/kg; BALB/c mice; monitored 7 days
# Description: Septic shock in BALB/c mice was induced by intraperitoneal (i.p.) injection of E. coli LPS (12 mg/kg) followed by i.p. injection of T15,21K-piscidin-1 (0.5 mg/Kg) or T15,21dK-piscidin-1 (1 mg/Kg) or polymyxin B (1 mg/Kg) ~5 min later. Mice treated with only saline was taken as control. Survival of the animals (n = 5) was monitored for 7 days (***p < 0.0001, log-rank test).
# Polymyxin B was taken as the positive control and the experiments were performed as reported earlier[14][30][31].
# In vivo studies, treat ment of Mice
# Female BALB/c mice (National laboratory animal centre, central drug research institute,
# Lucknow) we re given a s tandard laborato r y diet an d water ad libitum and housed under controlled
# environmental conditions. The mice wer e approx imatel y 25 g each at the st art of experiments. All
# the mice were divided into experimental groups for the administration of LPS and peptides. Mice
# were treated with 12 m g/ kg E. coli 0111: B4 LPS i n presen ce and in absen ce of peptide in different
# experimental groups. The mice treated with saline onl y, in absence of LP S were considered as
# experimental controls. To study the efficacy of a peptide in neutralizing LPS-induced pro-
# inflammatory responses in mice ~5 min post LPS treatment, the respective peptide was
# administered i.p. at a site other than the one, used for LPS injection. […] Survival of mice was
# monitored for 7 da ys. Survival of mice was also mo nitored following th e treatment of onl y p eptides
# for investigating their toxic effects.
# [12] = means of three independent experiments each in duplicate ± SD
# [13] = Staphylococcus aureus (ATCC BAA-44 MRSA), means of three independent experiments each in duplicate ± SD
# [14] = Staphylococcus aureus (ATCC 700699 MRSA), means of three independent experiments each in duplicate ± SD
# [15] = Staphylococcus aureus (ATCC 700698 MRSA), means of three independent experiments each in duplicate ± SD
# [16] = Staphylococcus aureus (ATCC 33592 Gentamycin Resistant), means of three independent experiments each in duplicate ± SD
# [17] = Staphylococcus aureus (ATCC 1708 MRSA), means of three independent experiments each in duplicate ± SD
compound,measurement,setting,value
H-FFHHIFRGIVHVGKKIHRLVTG-NH2 [T15K Piscidin-1],MIC,E. coli (ATCC 25922); [12],3.5 µM
same,Minimum inhibitory conc. (MIC) against bacteria 5,[1]; [13],1.25 ± 0.3 µM
same,Minimum inhibitory conc. (MIC) against bacteria 3,[2]; [14],2.5 ± 0.4 µM
same,Minimum inhibitory conc. (MIC) against bacteria 6,[3]; [15],2.5 ± 0.4 µM
same,Minimum inhibitory conc. (MIC) against bacteria 4,[4]; [16],1.25 ± 0.3 µM
same,Minimum inhibitory conc. (MIC) against bacteria 7,[5]; [17],2.5 ± 0.4 µM
same,Minimum inhibitory conc. (MIC) against bacteria 1,[6],1.25 ± 0.3 µM
same,Minimum inhibitory conc. (MIC) against bacteria 8,[7],7.0 ± 1.0 µM
same,Minimum inhibitory conc. (MIC) against bacteria 9,B. subtilis (ATCC 6633),8.5 ± 1.2 µM
same,Minimum inhibitory conc. (MIC) against bacteria 10,[8],3.2 ± 0.4 µM
same,Minimum inhibitory conc. (MIC) against bacteria 2,[9],2.5 ± 0.4 µM
same,"HC50, peptide concentration leading to 50% lysis of human RBC",[10],46 µM
"X-FFHHIFRGIVHVGKKIHRLVKG–amide [NBD-T15,21K-piscidin-1, T15,21K-piscidin-1 labelled at its N-terminus by NBD]",fold lower fluorescence of hRBCs bound to peptide than cells bound to NBD-labeled piscidin-1,hRBCs,about 5 fold
"X-FFHHIFRGIVHVGKkIHRLVkG–amide [NBD-T15,21dK-piscidin-1, T15,21dK-piscidin-1 labelled at its N-terminus by NBD]",fold lower fluorescence of hRBCs bound to peptide than cells bound to NBD-labeled piscidin-1,hRBCs,~7.5 fold
H-FFHHIFRGIVHVGKTIHRLVTG-NH2 [Piscidin-1],MIC,E. coli (ATCC 25922); [12],3.0 µM
same,Minimum inhibitory conc. (MIC) against bacteria 5,[1]; ATCC BAA-44,2.5 ± 0.4 µM
same,Minimum inhibitory conc. (MIC) against bacteria 3,[2]; ATCC 700699,5.0 ± 0.7 µM
same,Minimum inhibitory conc. (MIC) against bacteria 6,[3]; ATCC 700698,2.5 ± 0.4 µM
same,Minimum inhibitory conc. (MIC) against bacteria 4,[4]; ATCC 33592,2.5 ± 0.4 µM
same,Minimum inhibitory conc. (MIC) against bacteria 7,[5]; ATCC 1708,2.5 ± 0.4 µM
same,Minimum inhibitory conc. (MIC) against bacteria 1,[6],1.25 ± 0.3 µM
same,Minimum inhibitory conc. (MIC) against bacteria 8,[7],6.0 ± 0.7 µM
same,Minimum inhibitory conc. (MIC) against bacteria 9,B. subtilis (ATCC 6633),8.0 ± 1.0 µM
same,Minimum inhibitory conc. (MIC) against bacteria 10,[8],3.8 ± 0.5 µM
same,Minimum inhibitory conc. (MIC) against bacteria 2,[9],2.5 ± 0.4 µM
same,"HC50, peptide concentration leading to 50% lysis of human RBC",[10],15 µM
CC[C@H](C)[C@H](NC(=O)CNC(=O)[C@H](CCCNC(=N)N)NC(=O)[C@H](Cc1ccccc1)NC(=O)[C@@H](NC(=O)[C@H](Cc1c[nH]cn1)NC(=O)[C@H](Cc1c[nH]cn1)NC(=O)[C@H](Cc1ccccc1)NC(=O)[C@@H](N)Cc1ccccc1)[C@@H](C)CC)C(=O)N[C@H](C(=O)N[C@@H](Cc1c[nH]cn1)C(=O)N[C@H](C(=O)NCC(=O)N[C@@H](CCCCN)C(=O)N[C@H](CCCCN)C(=O)N[C@H](C(=O)N[C@@H](Cc1c[nH]cn1)C(=O)N[C@@H](CCCNC(=N)N)C(=O)N[C@@H](CC(C)C)C(=O)N[C@H](C(=O)N[C@H](C(=O)NCC(N)=O)[C@@H](C)O)C(C)C)[C@@H](C)CC)C(C)C)C(C)C [T15dK Piscidin-1] (HELM PEPTIDE1{F.F.H.H.I.F.R.G.I.V.H.V.G.K.[dK].I.H.R.L.V.T.G.[am]}$$$$V2.0),MIC,E. coli (ATCC 25922); [12],4.0 µM
same,Minimum inhibitory conc. (MIC) against bacteria 5,[1]; ATCC BAA-44,2.5 ± 0.4 µM
same,Minimum inhibitory conc. (MIC) against bacteria 3,[2]; ATCC 700699,10.0 ± 1.4 µM
same,Minimum inhibitory conc. (MIC) against bacteria 6,[3]; ATCC 700698,5.0 ± 0.7 µM
same,Minimum inhibitory conc. (MIC) against bacteria 4,[4]; ATCC 33592,2.5 ± 0.4 µM
same,Minimum inhibitory conc. (MIC) against bacteria 7,[5]; ATCC 1708,2.5 ± 0.4 µM
same,Minimum inhibitory conc. (MIC) against bacteria 1,[6],2.5 ± 0.4 µM
same,Minimum inhibitory conc. (MIC) against bacteria 8,[7],7.5 ± 1.0 µM
same,Minimum inhibitory conc. (MIC) against bacteria 9,B. subtilis (ATCC 6633),9.0 ± 1.3 µM
same,Minimum inhibitory conc. (MIC) against bacteria 10,[8],3.6 ± 0.5 µM
same,Minimum inhibitory conc. (MIC) against bacteria 2,[9],2.5 ± 0.4 µM
same,"HC50, peptide concentration leading to 50% lysis of human RBC",[10],125 µM
polymyxin B [reference compound],mortality rate of LPS-administered mice,[11],zero
Gentamycin [reference compound],MIC,E. coli (ATCC 25922); [12],3.14 µM
same,Minimum inhibitory conc. (MIC) against bacteria 5,[1]; [13],>50 µM
same,Minimum inhibitory conc. (MIC) against bacteria 3,[2]; [14],>100 µM
same,Minimum inhibitory conc. (MIC) against bacteria 6,[3]; [15],>100 µM
same,Minimum inhibitory conc. (MIC) against bacteria 4,[4]; [16],>100 µM
same,Minimum inhibitory conc. (MIC) against bacteria 7,[5]; [17],3.2 µM
same,MIC,[6],0.8 µM
same,MIC,[7],1.46 µM
same,MIC,B. subtilis (ATCC 6633),0.048 µM
same,MIC,[8],3.26 µM
same,MIC,[9],1.6 µM
"CCn1cc(C(=O)O)c(=O)c2cc(F)c(N3CCNCC3)cc21 [Norfloxacin, reference compound]",MIC,"E. coli (ATCC 25922); Escherichia coli, ATCC25922, means of three independent experiments each in duplicate ± SD",0.125 µM
same,MIC,"[1]; Staphylococcus aureus, ATCCBAA44|MRSA, read-out: Minimum inhibitory conc. (MIC) against bacteria 5",39 µM
same,MIC,"[2]; Staphylococcus aureus, ATCC700699|MRSA, read-out: Minimum inhibitory conc. (MIC) against bacteria 3",> 150 µM
same,MIC,"[3]; Staphylococcus aureus, ATCC700698|MRSA, read-out: Minimum inhibitory conc. (MIC) against bacteria 6",> 150 µM
same,MIC,"[4]; Staphylococcus aureus, ATCC33592, read-out: Minimum inhibitory conc. (MIC) against bacteria 4",2.44 µM
same,MIC,"[5]; Staphylococcus aureus, ATCC1708|MRSA, read-out: Minimum inhibitory conc. (MIC) against bacteria 7",> 150 µM
same,MIC,[6]; ATCC25923,1.22 µM
same,MIC,"[7]; Pseudomonas aeruginosa, ATCCBAA427",2.19 µM
same,MIC,"B. subtilis (ATCC 6633); Bacillus subtilis, ATCC6633",0.39 µM
same,MIC,"[8]; Klebsiella pneumoniae, ATCC27736",0.125 µM
same,MIC,[9]; ATCC29213,2.44 µM
